Reference: the supplement of paper PMC10307832

Tests used:
Experiment in all cases: relative viability (nuclei count vs DMSO), 5 days (fraction); higher = more cells survive
[1] = compound: C/C(=N\NC(=S)N1CCC1)/C2=CC=CC=N2 + Nc1nc2[nH]cc(CCc3ccc(C(=O)N[C@@H](CCC(=O)O)C(=O)O)cc3)c2c(=O)[nH]1 [Pemetrexed] (partner 0.2 µM)
Summary of the method: (§1)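 Relative viability divides the nuclei count in treated wells by that in vehicle wells. Lung cancer cell lines were seeded in 1536-well plates, dosed by pin tool the next day, and fixed and stained after 5 days in one step with final 0.05% Triton X-100, 1% formaldehyde and 1 ug/ml Hoechst. Dosing was a single drug or a fixed anchor-drug dose plus five library-drug doses (not always all listed) in √10 steps, and values are medians of duplicate plates imaged at 4×.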

[2] = compound: C/C(=N\NC(=S)N1CCC1)/C2=CC=CC=N2 + O=C(CCCCCCC(=O)Nc1ccccc1)NO [Vorinostat] (partner 1 µM)
Summary of the method: as §1

[3] = compound: C/C(=N\NC(=S)N1CCC1)/C2=CC=CC=N2 + C[C@]1(O)C[C@@H](c2nc(-c3ccc4ccc(-c5ccccc5)nc4c3)c3c(N)nccn32)C1 [Linsitinib] (partner 1 µM)
Summary of the method: as §1

[4] = compound: C/C(=N\NC(=S)N1CCC1)/C2=CC=CC=N2 + CC1(C)CCC(c2ccc(Cl)cc2)=C(CN2CCN(c3ccc(C(=O)NS(=O)(=O)c4ccc(N[C@H](CCN5CCOCC5)CSc5ccccc5)c(S(=O)(=O)C(F)(F)F)c4)cc3)CC2)C1 [Navitoclax] (partner 0.5 µM)
Summary of the method: as §1

| Cell Line | relative viability ([1]; first compound 0.05 µM) | relative viability ([1]; first compound 0.1581 µM) | relative viability ([1]; first compound 0.5 µM) | relative viability ([1]; first compound 1.581 µM) | relative viability ([1]; first compound 5 µM) | relative viability ([2]; first compound 0.05 µM) | relative viability ([2]; first compound 0.1581 µM) | relative viability ([2]; first compound 0.5 µM) | relative viability ([2]; first compound 1.581 µM) | relative viability ([2]; first compound 5 µM) | relative viability ([3]; first compound 0.05 µM) | relative viability ([3]; first compound 0.1581 µM) | relative viability ([3]; first compound 0.5 µM) | relative viability ([3]; first compound 1.581 µM) | relative viability ([3]; first compound 5 µM) | relative viability ([4]; first compound 0.05 µM) | relative viability ([4]; first compound 0.1581 µM) | relative viability ([4]; first compound 0.5 µM) | relative viability ([4]; first compound 1.581 µM) | relative viability ([4]; first compound 5 µM) |
| --- | --- | --- | --- | --- | --- | --- | --- | --- | --- | --- | --- | --- | --- | --- | --- | --- | --- | --- | --- | --- |
| HCC-366 | 0.0318 | 0.0443 | 0.0286 | 0.0295 | 0.0319 | 0.0207 | 0.0269 | 0.0257 | 0.0337 | 0.0244 | 0.0558 | 0.0147 | 0.0179 | 0.0206 | 0.0189 | 0.0139 | 0.0237 | 0.0184 | 0.0179 | 0.0172 |
| HCC-827 | 0.224 | 0.225 | 0.259 | 0.152 | 0.171 | 0.251 | 0.214 | 0.18 | 0.233 | 0.149 | 0.716 | 0.968 | 0.338 | 0.3 | 0.187 | 0.639 | 1.02 | 0.308 | 0.273 | 0.241 |
| HOP-62 | 0.0662 | 0.0706 | 0.0806 | 0.128 | 0.0892 | 0.0518 | 0.0592 | 0.0621 | 0.0833 | 0.0796 | 0.162 | 0.968 | 0.0703 | 0.0888 | 0.0655 | 0.169 | 0.0748 | 0.0823 | 0.104 | 0.0618 |
| IA-LM |  |  |  |  |  | 0.0691 | 0.0691 | 0.0591 | 0.059 | 0.051 | 0.0757 | 0.0841 | 0.0585 | 0.0612 | 0.0387 | 0.0776 | 0.062 | 0.0799 | 0.0503 | 0.0417 |
| LC-2-ad | 0.202 | 0.218 | 0.217 | 0.217 | 0.192 | 0.197 | 0.172 | 0.191 | 0.185 | 0.17 | 0.131 | 0.155 | 0.11 | 0.099 | 0.146 | 0.0933 | 0.0992 | 0.0713 | 0.0966 | 0.121 |
| LCLC-97TM1 | 0.0782 | 0.0748 | 0.0673 | 0.068 | 0.0595 | 0.071 | 0.0753 | 0.0572 | 0.0546 | 0.0434 | 0.117 | 0.176 | 0.1 | 0.105 | 0.108 | 0.124 | 0.421 | 0.0929 | 0.115 | 0.104 |
| LCLC-103H | 0.321 | 0.301 | 0.328 | 0.253 | 0.325 | 0.344 | 0.321 | 0.286 | 0.254 | 0.296 | 0.389 | 0.99 | 0.262 | 0.309 | 0.238 |  |  |  |  |  |
| LK-2 | 0.0705 | 0.123 | 0.0631 | 0.1 | 0.0756 | 0.117 | 0.143 | 0.145 | 0.169 | 0.127 | 0.14 | 0.154 | 0.18 | 0.114 | 0.125 | 0.121 | 0.146 | 0.108 | 0.112 | 0.126 |
| LOU-NH91 | 0.392 | 0.439 | 0.421 | 0.403 | 0.366 | 0.577 | 0.588 | 0.566 | 0.388 | 0.374 | 0.466 | 0.509 | 0.424 | 0.407 | 0.422 | 0.275 | 0.308 | 0.253 | 0.225 | 0.278 |
| NCI-H358 | 0.114 | 0.107 | 0.109 | 0.0963 | 0.12 | 0.0785 | 0.0651 | 0.0611 | 0.0639 | 0.0677 | 0.179 | 0.196 | 0.163 | 0.125 | 0.181 |  |  |  |  |  |
| NCI-H522 | 0.243 | 0.299 | 0.284 | 0.352 | 0.364 | 0.272 | 0.322 | 0.265 | 0.369 | 0.411 |  |  |  |  |  |  |  |  |  |  |
| NCI-H650 | 0.179 | 0.245 | 0.201 | 0.166 | 0.131 | 0.152 | 0.163 | 0.152 | 0.177 | 0.139 | 0.214 | 0.262 | 0.251 | 0.153 | 0.18 |  |  |  |  |  |
| NCI-H661 | 0.286 | 0.278 | 0.244 | 0.229 | 0.223 | 0.324 | 0.297 | 0.289 | 0.283 | 0.259 | 0.186 | 0.218 | 0.191 | 0.196 | 0.212 |  |  |  |  |  |
| NCI-H727 |  |  |  |  |  | 0.298 | 0.327 | 0.299 | 0.311 | 0.304 | 0.203 | 0.115 | 0.213 | 0.222 | 0.238 | 0.109 | 0.0812 | 0.098 | 0.189 | 0.257 |
| NCI-H1563 | 0.525 | 0.571 | 0.505 | 0.41 | 0.47 |  |  |  |  |  | 0.684 | 0.541 | 0.563 | 0.612 | 0.629 |  |  |  |  |  |
| NCI-H1648 | 0.258 | 0.323 | 0.329 | 0.274 | 0.311 | 0.217 | 0.48 | 0.339 | 0.342 | 0.245 |  |  |  |  |  |  |  |  |  |  |
| NCI-H1650 | 0.308 | 0.186 | 0.202 | 0.221 | 0.203 | 0.159 | 0.171 | 0.143 | 0.143 | 0.178 |  |  |  |  |  | 0.13 | 0.173 | 0.142 | 0.181 | 0.214 |
| NCI-H1703 |  |  |  |  |  |  |  |  |  |  | 0.0702 | 0.0548 | 0.068 | 0.0799 | 0.121 | 0.124 | 0.134 | 0.156 | 0.124 | 0.122 |
| NCI-H1792 | 0.126 | 0.0786 | 0.0748 | 0.0765 | 0.0786 |  |  |  |  |  | 0.366 | 0.261 | 0.119 | 0.115 | 0.066 | 0.256 | 0.274 | 0.127 | 0.0935 | 0.084 |
| NCI-H2170 | 0.235 | 0.208 | 0.202 | 0.155 | 0.116 | 0.267 | 0.195 | 0.161 | 0.155 | 0.0916 |  |  |  |  |  | 0.581 | 0.543 | 0.168 | 0.207 | 0.189 |
| NCI-H2342 | 0.262 | 0.288 | 0.277 | 0.259 | 0.251 | 0.28 | 0.288 | 0.267 | 0.234 | 0.265 |  |  |  |  |  |  |  |  |  |  |
| SW 900 | 0.127 | 0.081 | 0.0901 | 0.122 | 0.196 | 0.145 | 0.149 | 0.0776 | 0.125 | 0.183 |  |  |  |  |  |  |  |  |  |  |
